{
  "source": "patent US11959083B2",
  "about": "“Immunosuppression-reverting oligonucleotides inhibiting the expression of CD39” (Secarna Pharmaceuticals GmbH & Co. KG, priority 2016, dated 2024)",
  "key": {"hCD39 mRNA [1]": {"tested_on": "hCD39 mRNA", "experiment": "hCD39 mRNA knockdown efficacy screen in HDLM-2 cells (single dose, gymnotic delivery, QuantiGene Singleplex)", "assay_type": "cell-based, human", "conditions": "10 μM; for Mean hCD39 mRNA expression normalized to HPRT1 relative to untreated control = 1: first screening round; for Relative hCD39 mRNA expression (compared to non-treated cells): second screening round, normalized to HPRT1", "in_short": "(§1)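 Antisense oligonucleotides given once at 10 μM without transfection reagent (gymnotic) to HDLM-2 or A-172 cells for 3 days. hCD39 mRNA measured by QuantiGene Singleplex, normalized to HPRT1 and expressed relative to untreated cells; triplicate means.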"}, "hCD39 protein": {"tested_on": "hCD39 protein", "experiment": "Concentration- and time-dependent hCD39 protein knockdown in HDLM-2 cells (flow cytometry)", "assay_type": "cell-based, human", "conditions": "for inhibition of hCD39 protein: HDLM-2 cells, three, four and six days, different concentrations; for Inhibition [%] (Protein/mRNA): HDLM-2, CD39 protein", "method": "FIG. 8 depicts concentration- and time-dependent CD39 protein knockdown by A04040H (SEQ ID No. 3) and A04045H (SEQ ID No. 4). Analysis of CD39 protein expression by flow cytometry in HDML-2 cells is given after treatment with the indicated antisense oligonucleotides for 3, 4 and 6 days. As treatment control, cells were treated with neg1 for 3, 4 and 6 days at the indicated concentrations. Relative expression compared to untreated control cells (=1) is depicted.\nHDLM-2 cells were therefore treated with different concentrations of the respective antisense oligonucleotide for three, four and six days, respectively. Protein expression was analyzed by flow cytometry using the CD39 antibody (clone A1) and 7-AAD to investigate viability. […] Table 13summarizes protein knockdown efficiency of the selected human CD39 antisense oligonucleotides A04040H (SEQ ID No. 3) and A04045H (SEQ ID No. 4) in HDLM-2 cells at different time points: […]"}, "hCD39 mRNA [2]": {"tested_on": "hCD39 mRNA", "experiment": "hCD39 mRNA knockdown efficacy screen in A-172 cells (single dose, gymnotic delivery, QuantiGene Singleplex)", "assay_type": "cell-based, human", "conditions": "10 μM; for Mean hCD39 mRNA expression (relative to untreated cells set as 1): first screening round; for Mean hCD39 mRNA expression (relative to untreated cells set as 1) / Relative hCD39 mRNA expression (compared to non-treated cells): normalized to HPRT1; for Relative hCD39 mRNA expression (compared to non-treated cells): second screening round", "in_short": "as §1"}, "hCD39": {"tested_on": "hCD39", "experiment": "ATP degradation in primary human CD8+ T cells after hCD39 knockdown (ATP Bioluminescence Assay)", "assay_type": "cell-based", "conditions": "for Relative ATP levels in supernatants of CD8+ T cells 30 minutes after addition of ATP: 5 μM oligonucleotide 6 days, medium = 1", "method": "FIG. 11A-11D show knockdown of hCD39 protein (FIG. 11A) and viability (FIG. 11B) of primary human CD8^+ T cells, isolated from peripheral blood using MACS. CD8^+ T cells were activated by plate-bound anti-human CD3 (OKT-3). Activated cells were treated with RPMI-1640 medium, medium supplemented with A04040H (SEQ ID No. 3), and medium supplemented with neg1 at 5 μM, respectively, for 6 days in total. After 3 days, medium was replaced with fresh medium containing 5 μM of A04040H (SEQ ID No. 3) and neg 1, respectively, and hCD39 protein knockdown efficacy (FIG. 11A) and viability (FIG. 11B) were analyzed on day 6 by flow cytometry. Residual hCD39 expression and viability (median of 7-AAD positive cells) is depicted compared to untreated cells (FIG. 11A-11B). The same day, cells were harvested, washed and re-plated at a constant cell number (150.000 cells/Well in a 96-Well plate) in triplicates. Then, 2 μM (FIG. 11C) or 20 μM (FIG. 11D) of ATP was added to cells or cell culture medium without cells and ATP concentration of cell supernatants or cell culture medium was determined after 30 min using the ATP Bioluminescence Assay Kit (Roche).\nAdditionally, the effect of hCD39 knockdown on ATP degradation was also analyzed in primary human CD8^+ T cells (FIG. 11A-11D). Activated T cells were treated with 5 μM antisense oligonucleotide A04040H (SEQ ID No. 3) or the negative control oligonucleotide neg1 for 6 days (3+3). After 3 days, RPMI-1640 medium was replaced with fresh RPMI-1640 medium containing […] of antisense oligonucleotide. Protein knockdown efficacy (FIG. 11A) and viability (FIG. 11B) were analyzed after 6 days by flow cytometry. […] On day 6, cells were re-plated at a constant cell number and ATP was added at concentrations of 2 μM (FIG. 11C) or 20 μM (FIG. 11D). ATP concentration was measured in the cell supernatants or in cell culture medium after 30 min (Table 15)."}},
  "note": "l = locked nucleic acid (LNA); d = 2'-deoxy (DNA)",
  "data": [
    {"substance": "+C*+G*+T*T*T*A*G*G*C*T*A*T*G*T*A*+C*+T*+T (CGTTTAGGCTATGTACTT; chemistry not fully specified) [neg1, negative control antisense oligonucleotide not hybridizing with CD39, described in WO2014154843 A1, reference compound]", "values": [
      {"measurement": "influence on the expression of hCD39", "setting": "hCD39 mRNA [1]", "value": "no negative influence on the expression of hCD39"},
      {"measurement": "Mean hCD39 mRNA expression normalized to HPRT1 relative to untreated control = 1", "setting": "hCD39 mRNA [1]; 3 days", "value": 1.09},
      {"measurement": "Relative hCD39 mRNA expression (compared to non-treated cells)", "setting": "hCD39 mRNA [1]; 3 days", "value": 1.09},
      {"measurement": "inhibition of hCD39 protein", "setting": "hCD39 protein", "value": "no inhibitory effect"},
      {"measurement": "influence on the expression of hCD39", "setting": "hCD39 mRNA [2]", "value": "no negative influence on the expression of hCD39"},
      {"measurement": "Mean hCD39 mRNA expression (relative to untreated cells set as 1)", "setting": "hCD39 mRNA [2]; 3 days", "value": 1.36},
      {"measurement": "Relative hCD39 mRNA expression (compared to non-treated cells)", "setting": "hCD39 mRNA [2]; 3 days", "value": 0.79},
      {"measurement": "Relative ATP levels in supernatants of CD8+ T cells 30 minutes after addition of ATP", "setting": "hCD39; Added ATP (2 μmol/1)", "value": 0},
      {"measurement": "Relative ATP levels in supernatants of CD8+ T cells 30 minutes after addition of ATP", "setting": "hCD39; Added ATP (20 μmol/1)", "value": 0.12}
    ]},
    {"substance": "+G*+T*+T*T*G*T*G*T*G*A*G*A*G*C*+T*+T (antisense GTTTGTGTGAGAGCTT; sugars from the 5' end l3 d11 l2, all phosphorothioate, methylation of C not given here) [A04040H]", "values": [
      {"measurement": "Mean hCD39 mRNA expression normalized to HPRT1 relative to untreated control = 1", "setting": "hCD39 mRNA [1]; 3 days", "value": 0.08},
      {"measurement": "Relative hCD39 mRNA expression (compared to non-treated cells)", "setting": "hCD39 mRNA [1]; 3 days", "value": 0.06},
      {"measurement": "Residual hCD39 mRNA expression relative to untreated cells (set as 1)", "setting": "hCD39 mRNA [1]; 3 days, third screening round", "value": 0.01},
      {"measurement": "Inhibition [%] (Protein/mRNA)", "setting": "hCD39 protein; Day 3, 0.1 μM", "value": 46.73, "unit": "%"},
      {"measurement": "Inhibition [%] (Protein/mRNA)", "setting": "hCD39 protein; Day 3, 0.5 μM", "value": 54.75, "unit": "%"},
      {"measurement": "Inhibition [%] (Protein/mRNA)", "setting": "hCD39 protein; Day 3, 1 μM", "value": 60.56, "unit": "%"},
      {"measurement": "Inhibition [%] (Protein/mRNA)", "setting": "hCD39 protein; Day 3, 10 μM", "value": 61.36, "unit": "%"},
      {"measurement": "Inhibition [%] (Protein/mRNA)", "setting": "hCD39 protein; Day 4, 0.1 μM", "value": 70.73, "unit": "%"},
      {"measurement": "Inhibition [%] (Protein/mRNA)", "setting": "hCD39 protein; Day 4, 0.5 μM", "value": 78.25, "unit": "%"},
      {"measurement": "Inhibition [%] (Protein/mRNA)", "setting": "hCD39 protein; Day 4, 1 μM", "value": 76.96, "unit": "%"},
      {"measurement": "Inhibition [%] (Protein/mRNA)", "setting": "hCD39 protein; Day 4, 10 μM", "value": 79.11, "unit": "%"},
      {"measurement": "Inhibition [%] (Protein/mRNA)", "setting": "hCD39 protein; Day 6, 0.1 μM", "value": 87.37, "unit": "%"},
      {"measurement": "Inhibition [%] (Protein/mRNA)", "setting": "hCD39 protein; Day 6, 0.5 μM", "value": 89.36, "unit": "%"},
      {"measurement": "Inhibition [%] (Protein/mRNA)", "setting": "hCD39 protein; Day 6, 1 μM", "value": 84.12, "unit": "%"},
      {"measurement": "Inhibition [%] (Protein/mRNA)", "setting": "hCD39 protein; Day 6, 10 μM", "value": 88.84, "unit": "%"},
      {"measurement": "inhibition of hCD39 protein", "setting": "hCD39 protein", "value": "potent inhibition of hCD39 protein after all indicated time points"},
      {"measurement": "Mean hCD39 mRNA expression (relative to untreated cells set as 1)", "setting": "hCD39 mRNA [2]; 3 days", "value": 0.07},
      {"measurement": "Relative hCD39 mRNA expression (compared to non-treated cells)", "setting": "hCD39 mRNA [2]; 3 days", "value": 0.04},
      {"measurement": "Residual hCD39 mRNA expression relative to untreated cells (set as 1)", "setting": "hCD39 mRNA [2]; 3 days, third screening round", "value": 0.05},
      {"measurement": "Relative ATP levels in supernatants of CD8+ T cells 30 minutes after addition of ATP", "setting": "hCD39; Added ATP (2 μmol/1)", "value": 0.59},
      {"measurement": "Relative ATP levels in supernatants of CD8+ T cells 30 minutes after addition of ATP", "setting": "hCD39; Added ATP (20 μmol/1)", "value": 0.89},
      {"measurement": "ATP concentration compared to neg 1 treated cells", "setting": "hCD39; primary human CD8+ T cells, 5 μM, 6 days", "value": "about 7 ×"},
      {"measurement": "ATP degradation efficacy", "setting": "hCD39; primary human CD8+ T cells, 5 μM, 6 days, 2 or 20 μM ATP, 30 min", "value": "nearly abolished"}
    ]}
  ]
}
